# Reference: publication PMC11274654 (Biomedicines, 2024)
# pEC50: −log10 of the molar value.
# System: Rat Calvarial Osteoblasts (RCOs)
# Experiment: ALP assay (osteoblast differentiation) in rat calvarial osteoblasts
# Format: cell-based
# Settings: for Activity in ALP Assay (Positive/Negative) / Effect on ALP activity compared to the control (vehicle): 48 h; for pEC50: Rattus norvegicus, Calvarial osteoblast, 48 h in osteoblast differentiation media
# Method: Sequential digestion was performed to isolate calvarial osteoblast cells from neonatal rat pups. Briefly, calvariae were harvested from ten to twelve 1–2-day old rat pups, cleaned, and subjected to five sequential enzymatic digestions (0.1% dispase and 0.1% collagenase I) of 10–15 min each, followed by culturing of the harvested cells in α-MEM supplemented with 10% FBS [22].
# RCOs were seeded in 24-well plates (1 × 10^4 cells/well), and the cells were treated for 48 h in osteoblast differentiation media (α-MEM supplemented with 10 mM β-glycerophosphate and 50 μg/mL ascorbic acid) with the imidazole group of chemicals (10^−11 M–10^−6 M).
# A total of 2 mg/mL of para-Nitrophenyl phosphate in diethanolamine buffer was used to measure the ALP activity at a 405 nm wavelength.
Compound,Activity in ALP Assay (Positive/Negative),Effect on ALP activity compared to the control (vehicle),pEC50
O=C(Cn1ccnc1[N+](=O)[O-])NCCO [Etanidazole],Positive,significantly increased,6.40
Cn1c([N+](=O)[O-])cnc1COC(N)=O [Ronidazole],Negative,no effect,< 5.00
CCS(=O)(=O)CCn1c([N+](=O)[O-])cnc1C [Tinidazole],Negative,no effect,< 5.00
Cc1ncc([N+](=O)[O-])n1CC(O)CCl (stereo not drawn) [Ornidazole],Negative,no effect,< 5.00
Cc1ncc([N+](=O)[O-])n1CC(C)O (stereo not drawn) [Secnidazole],Negative,no effect,< 5.00
